Assay results: patent publication US20120107428A1, “REPELLENTS FOR PESTIFEROUS SOCIAL WASPS” (Sterling International Inc., priority 2010, published 2012)
Counter-ions that a name gives are not always drawn.

Tests used:
[1] = system: Paper wasps (mainly Polistes dominulus, plus a few of P. aurifer); experiment: Field trapping, Rescue W•H•Y traps baited with attractant AA/2MB: captures of paper wasps; type: in vivo; details: for decrease of trap catches of paper wasps: Experiment 9; for Mean/trap/visit ± SE Paper wasps: attractant AA/2MB alone (row AA/2MB) or plus chemical, N 9
Protocol: (§1) Eleven field trapping experiments were carried out from late August to mid-October 2009 in residential and woody areas around Spokane, Wash., USA, mostly using the trap known by the designation Rescue® W•H•Y (except on one occasion that Rescue® Reusable Yellowjacket Traps were used for a natural food attractant; see below for details). The commercial W•H•Y trap has a top chamber and a bottom chamber and is described in U.S. Patent Application Publication No. 2009/0151228. The top chamber is baited with two attractants—one of which is a solid contained in a vial (2-methyl-1-butanol), and the other is a liquid mixed with water (acetic acid). The bottom chamber is baited with a liquid attractant (heptyl butyrate) poured onto a cotton pad. Separation of the two types of attractants (otherwise antagonistic to each other when released from the same chamber) in two chambers creates two focal attraction sources from one trap for different species of wasps, hornets, and yellowjackets. […] In a special occasion, the commercial Rescue® Reusable Yellowjacket Traps were each baited with 10 g of chopped bacon (loaded into a cartridge) as a natural protein food attractant. Traps were hung 1.5-2.0 m above the ground on either fences or tree branches ca. 5 m apart between each trap and at least 15 m between sets. For each trapping experiment, three sets of traps (i.e., three physical replicates of each treatment) were deployed with their initial trap positions within each set being randomized. To minimize positional effects and obtain more replications, wasp collections and trap re-randomization were carried out when 5-10 wasps were caught in the best traps. Each replicate lasted several days depending on wasp flight activity. Captured wasps were removed from the traps and kept in the zip-bags before returning to the laboratory for recording of the species, gender status, and catch. Repellent candidates (individuals or mixtures) were released from polyethylene bags (3×5 cm; with a fabric felt) with various thicknesses from 2-12 mil (see release rates listed in tables); they were employed inside the same trap chamber as the attractant.
(§2) Experiment 1 tested five individual essential oils (pennyroyal, lemongrass, peppermint, clove, and citronella) and two known mosquito repellents (i.e., major components of catnip oil), E/Z-nepetalactone and Z/E-nepetalactone plus a blank control against a mixture of attractant [acetic acid (AA) and 2-methyl-1-butanol (2 MB)] using the W•H•Y traps (both attractant and repellent candidates were released from the top chamber) from for eight consecutive days from August to early September. Experiment 2 tested nine individual essential oils (ylang ylang, vetiver, myrrh, patchouli, geranium, eucalyptus, camphor, spearmint, and wintergreen) plus a blank control against a mixture of attractant (AA+2 MB) using the W•H•Y traps (both attractant and repellent candidates were released from the top chamber) for eight consecutive days from late August to early September. Experiment 3 tested seven individual essential oils (Roman chamomile, sage, fennel seed, rosemary, thyme, anise, and lavender) plus a blank control against a mixture of attractant (AA+2 MB) using the W•H•Y traps (both attractant and repellent candidates were released from the top chamber) for eight consecutive days from late August to early September. Experiment 4 tested two essential oil mixtures (3EO-mix: clove, geranium, and lemongrass in ca. 1:1:1 ratio; and 4EO-mix: clove, geranium, lemongrass, and rosemary in ca. 1:1:1:1 ratio) plus a blank control against a mixture of attractant (AA+2 MB) using the W•H•Y traps (both attractant and repellent candidates were released from the top chamber) for 13 consecutive days in September; the essential oil mixtures alone without attractant were tested in the same experiment.

[2] = system: Yellowjackets (mainly Vespula pensylvanica (ca. 90%), plus V. vulgaris, V. germanica, and Dolichovespula maculata); experiment: Field trapping, Rescue W•H•Y traps baited with attractant AA/2MB: captures of yellowjackets; type: in vivo; details: for reduction of trap catches of yellowjackets: Experiment 9; for Mean/trap/visit ± SE Yellowjackets: attractant AA/2MB alone (row AA/2MB) or plus chemical, N 9
Protocol: as §1, §2

[3] = system: worker antennae of Vespula pensylvanica, Dolichovespula maculata, Polistes dominulus, and P. aurifer; experiment: GC-EAD/MS analysis of SPME headspace samples of essential oils: antennal responses; details: for antennal (EAD) response to component of lemongrass oil: antennae of V. pensylvanica, D. maculata, and Polistes dominulus, FIG. 2; for antennal (EAD) response to component of geranium oil / antennal (EAD) response to component of pennyroyal oil / antennal (EAD) response to component of spearmint oil: V. pensylvanica, D. maculata, P. dominulus, or P. aurifer antennae; for antennal (EAD) response to component of rosemary oil: V. pensylvanica and D. maculata antennae, FIG. 3
Protocol: Headspace volatiles from greater than 10 types of essential oils (1 ml each in a closed 20 ml glass vial) were sampled via Solid-Phase Micro-Extraction (SPME) (CAR/PDMS, 85 μm, Supelco, Bellefonte, Pa.) for 20-30 sec before GC-EAD and GC-MS analyses.
Paper wasp [European paper wasp (Polistes dominulus) or golden paper wasp (P. aurifer)] and yellowjacket [Western yellowjacket (Vespula pensylvanica) or Bald-faced hornet (Dolichovespula maculata)] workers for electrophysiological study were collected from their nests and kept alive at 4° C. before testing.
SPME samples of the various essential oils were injected splitless into a Varian CP-3800 GC equipped with a polar column (HP-INNOWAX; 30 m×0.53 mm×1.0 μm film thickness; Agilent Technologies, Wilmington, Del., USA) and a 1:1 effluent splitter that allowed simultaneous flame ionization detection (FID) and electroantennographic detection (EAD) of either a yellowjacket or paper wasp worker antenna to the separated volatile compounds. Helium was used as the carrier gas, and the injector and detector temperatures were 250° C. and 300° C., respectively. Column temperature was 50° C. for 1 min, rising to 240° C. at 10° C./min, and then held for 10 min. The outlet for the EAD was held in a humidified air stream flowing at 0.5 m/sec over the antennal preparation. EAD recordings were made using silver wire-glass capillary electrodes filled with Beadle-Ephrussi Ringer on freshly cut antennae. The antennal signals were stored and analyzed on a PC equipped with a serial IDAC interface box and the program EAD ver. 2.5 (Syntech, Hilversum, The Netherlands).
Compounds were identified by comparison of retention times with those of authentic standards and with mass spectra of standards.

[4] = Table 8, Experiment 9, 13 days in September
[5] = V. pensylvanica and P. dominulus worker antennae
[6] = Table 7, Experiment 8, 13 days in September
[7] = Table 9, Experiment 10, 18 days end of September through mid-October

## C=CCc1ccc(O)c(OC)c1 [Eugenol, eugenol]
[1]; AA/2 MB
  decrease of trap catches of paper wasps: 58%
[1]; [4]
  Mean/trap/visit ± SE Paper wasps: 2.0 ± 0.5 ab wasps/trap/visit
[2]; AA/2 MB
  reduction of trap catches of yellowjackets: > 95%
[2]; [4]
  Mean/trap/visit ± SE Yellowjackets: 1.7 ± 0.7 a wasps/trap/visit
[3]; [5]
  antennal (EAD) response to component of clove oil: strong and repeatable antennal responses

## Cc1ccc(C(C)C)cc1 [p-cymene]
[3]; [5]
  antennal (EAD) response to component of sage oil: strong and repeatable antennal responses

## CC(C)=CCC/C(C)=C/C=O [E-citral]
[3]
  antennal (EAD) response to component of lemongrass oil: strongly responded

## cis/trans-rose oxides
[3]
  antennal (EAD) response to component of geranium oil: significant and consistent EAD-responses

## CC(C)=CCC/C(C)=C\C=O [Z-citral]
[3]
  antennal (EAD) response to component of lemongrass oil: strongly responded

## CCCCCC(=O)CCC [4-nonanone]
[3]
  antennal (EAD) response to component of lemongrass oil: strongly responded

## CC(C)=CCC/C(C)=C/COC=O [Geranyl formate, geranyl formate]
[1]; [6]
  Mean/trap/visit ± SE Paper wasps: 5.8 ± 2.7 a wasps/trap/visit
[2]; Experiment 8, AA/2 MB
  repellency at the doses tested: not significantly repellent
[2]; [6]
  Mean/trap/visit ± SE Yellowjackets: 28.2 ± 7.0 b wasps/trap/visit
[3]
  antennal (EAD) response to component of geranium oil: significant and consistent EAD-responses

## α/β-thujone
[1]; [7]
  Mean/trap/visit ± SE Paper wasps: 0.2 ± 0.1 a wasps/trap/visit
[2]; [7]
  Mean/trap/visit ± SE Yellowjackets: 4.9 ± 1.6 ab wasps/trap/visit
[3]; [5]
  antennal (EAD) response to component of sage oil: strong and repeatable antennal responses

## CC(C)=CCCC(C)CCOC=O (stereo not shown) [citronyl formate, citronellyl formate]
[3]
  antennal (EAD) response to component of geranium oil: significant and consistent EAD-responses

## CC(=O)CCC=C(C)C [6-Methyl-5-hepten-2-one, 6-methyl-5-hepten-2-one]
[1]; [6]
  Mean/trap/visit ± SE Paper wasps: 4.8 ± 2.3 a wasps/trap/visit
[2]; Experiment 8, AA/2 MB
  repellency at the doses tested: not significantly repellent
[2]; [6]
  Mean/trap/visit ± SE Yellowjackets: 21.9 ± 3.8 b wasps/trap/visit
[3]
  antennal (EAD) response to component of lemongrass oil: strongly responded

## CC(C)[C@@H]1CC[C@@H](C)CC1=O [Menthone, menthone]
[1]; Experiment 8, AA/2 MB, not statistically different from the attractant alone
  trap catch reduction to the paper wasps: > 50%
[1]; [6]
  Mean/trap/visit ± SE Paper wasps: 2.1 ± 1.3 a wasps/trap/visit
[2]; Experiment 8, AA/2 MB
  yellowjackets caught, attractant plus compound versus attractant alone: four times less
[2]; [6]
  Mean/trap/visit ± SE Yellowjackets: 7.7 ± 3.4 a wasps/trap/visit
[3]
  antennal (EAD) response to component of geranium oil: significant and consistent EAD-responses
  antennal (EAD) response to component of pennyroyal oil: significant and consistent EAD-responses

## COC(=O)c1ccccc1 [Methyl benzoate, methyl benzoate]
[1]; [7]
  Mean/trap/visit ± SE Paper wasps: 1.9 ± 0.8 ab wasps/trap/visit
[2]; [7]
  Mean/trap/visit ± SE Yellowjackets: 5.2 ± 2.2 ab wasps/trap/visit
[3]; [5]
  antennal (EAD) response to component of ylang ylang oil: strong and repeatable antennal responses

## C=C(C)[C@H]1CC=C(C)C(=O)C1 [d-Carvone, d-carvone]
[1]; [7]
  Mean/trap/visit ± SE Paper wasps: 0.9 ± 0.5 a wasps/trap/visit
[2]; [7]
  Mean/trap/visit ± SE Yellowjackets: 4.9 ± 2.2 ab wasps/trap/visit
[3]
  antennal (EAD) response to component of spearmint oil: significant and consistent EAD-responses

## CC12CCC(CC1)C(C)(C)O2 [1,8-Cineole, 1,8-cineole]
[1]; [6]
  Mean/trap/visit ± SE Paper wasps: 4.6 ± 1.8 a wasps/trap/visit
[2]; Experiment 8, AA/2 MB
  repellency at the doses tested: not significantly repellent
[2]; [6]
  Mean/trap/visit ± SE Yellowjackets: 18.2 ± 4.1 b wasps/trap/visit
[3]
  antennal (EAD) response to component of rosemary oil: significant EAD-responses
  antennal (EAD) response to component of spearmint oil: significant and consistent EAD-responses
[3]; [5]
  antennal (EAD) response to component of lavender oil: strong and repeatable antennal responses
  antennal (EAD) response to component of sage oil: strong and repeatable antennal responses

## E/Z-citral
[1]; AA/2 MB
  decrease of trap catches of paper wasps: 88%
[1]; [4]
  Mean/trap/visit ± SE Paper wasps: 0.6 ± 0.3 a wasps/trap/visit
[2]; AA/2 MB
  reduction of trap catches of yellowjackets: more than 70%
[2]; [4]
  Mean/trap/visit ± SE Yellowjackets: 11.6 ± 5.8 a wasps/trap/visit

## CC(=O)OCc1ccccc1 [Benzyl acetate, benzyl acetate]
[1]; [7]
  Mean/trap/visit ± SE Paper wasps: 0.9 ± 0.5 a wasps/trap/visit
[2]; [7]
  Mean/trap/visit ± SE Yellowjackets: 8.2 ± 3.0 abc wasps/trap/visit
[3]; [5]
  antennal (EAD) response to component of ylang ylang oil: strong and repeatable antennal responses

## CCCCCC(O)CC (stereo not shown) [3-Octanol, 3-octanol]
[1]; [7]
  Mean/trap/visit ± SE Paper wasps: 1.1 ± 0.8 a wasps/trap/visit
[2]; [7]
  Mean/trap/visit ± SE Yellowjackets: 6.9 ± 2.4 ab wasps/trap/visit
[3]
  antennal (EAD) response to component of pennyroyal oil: significant and consistent EAD-responses
  antennal (EAD) response to component of spearmint oil: significant and consistent EAD-responses

## C=CC(C)(O)CCC=C(C)C (stereo not shown) [Linalool, linalool]
[1]; [6]
  Mean/trap/visit ± SE Paper wasps: 5.2 ± 3.5 a wasps/trap/visit
[2]; Experiment 8, AA/2 MB
  repellency at the doses tested: not significantly repellent
[2]; [6]
  Mean/trap/visit ± SE Yellowjackets: 23.9 ± 4.0 b wasps/trap/visit
[3]; [5]
  antennal (EAD) response to component of lavender oil: strong and repeatable antennal responses
  antennal (EAD) response to component of ylang ylang oil: strong and repeatable antennal responses
[3]
  antennal (EAD) response to component of lemongrass oil: strongly responded

## CC(C)=C1CC[C@@H](C)CC1=O [Pulegone, pulegone]
[1]; [7]
  Mean/trap/visit ± SE Paper wasps: 0.2 ± 0.1 a wasps/trap/visit
[2]; [7]
  Mean/trap/visit ± SE Yellowjackets: 6.4 ± 1.8 abc wasps/trap/visit
[3]
  antennal (EAD) response to component of pennyroyal oil: significant and consistent EAD-responses

## C=C1CC[C@@H]2[C@H]1[C@H]1[C@H](C(C)C)CC[C@]12C [β-bourberene]
[3]
  antennal (EAD) response to component of geranium oil: significant and consistent EAD-responses

## CC1=CCC2CC1C2(C)C (stereo not drawn) [α-pinene]
[3]
  antennal (EAD) response to component of rosemary oil: significant EAD-responses
[3]; [5]
  antennal (EAD) response to component of sage oil: strong and repeatable antennal responses

## CC(C)=CCCC(C)CC=O (stereo not shown) [Citronellal, citronellal]
[1]; [7]
  Mean/trap/visit ± SE Paper wasps: 0.4 ± 0.2 a wasps/trap/visit
[2]; [7]
  Mean/trap/visit ± SE Yellowjackets: 11.4 ± 5.2 bc wasps/trap/visit
[3]; [5]
  antennal (EAD) response to component of citronella oil: strong and repeatable antennal responses

## COC(=O)c1ccccc1O [Methyl salicylate, methyl salicylate]
[1]; [7]
  Mean/trap/visit ± SE Paper wasps: 0.9 ± 0.5 a wasps/trap/visit
[2]; [7]
  Mean/trap/visit ± SE Yellowjackets: 4.7 ± 2.0 ab wasps/trap/visit
[3]; V. pensylvanica antennae, FIG. 12
  antennal (EAD) response to component of wintergreen oil: strong antennal response
